We go through one compound from patent publication US20120009152A1, “NITRIC OXIDE DONORS FOR TREATMENT OF DISEASE AND INJURY” (priority 2002, published 2012).

The test system of this test is rat VEGF. The test is described as follows: Sandwich ELISA of VEGF secretion from endogenous cells after MCAo. It counts as in vivo. To be noted: vs MCAo control group. On the procedure:
Male Wistar rats (n=32) were subjected to middle cerebral artery occlusion (MCAo) and were randomized with 8 rats in four treatment groups, with treatment initiated 1 day after stroke. Groups included: 1) phosphate buffered saline (PBS); 2) subtherapeutic DETA-NONOate (NN) at a dose of 0.4 mg/kg (IP); 3) subtherapeutic hMSCs (1×10^6 cells-iv); and 4) combination subtherapeutic NN and hMSCs. Functional outcome measurements consisted of a Neurologic Severity Scale (18 point scale) (NSS) and the Adhesive Removal Test performed prior to stroke, immediately before treatment and at 7 and 14 days after treatment. […] However, there was an overall hMSC effect on NSS at 14 days.
To obtain insight into the mechanisms associated with the induction of angiogenesis and neurogenesis, the fact that combination therapy induces the expression of neurotrophic and growth factors in brain was tested. Data are presented on the levels of vascular endothelial growth factor (VEGF) in brain after treatment with MSCs.
In general terms: ELISA stands for enzyme-linked immunosorbent assay.

In the case of `NCCN(CCN)/[N+]([O-])=N/O` [DETANONOate, (Z)-1-[N-(2-aminoethyl)-N-(2-ammonioethyl)aminio]diazen-1-ium-1,2-diolate], the “VEGF secretion from endogenous cells (rat VEGF)” value is reported as “did not show a significant increase”.
